Data from patent US20080058345A1, “Combination Therapy with Mecamylamine for the Treatment of Mood Disorders” (priority 2004, published 2008).

Tested on: individuals with major depression who are partial responders (based on HAM-D scores) to selective serotonin reuptake inhibitors
Assay: 8-week clinical trial of mecamylamine plus SSRI antidepressant versus placebo plus antidepressant
Assay type: in vivo, human
Procedure: The treatment of depressive symptoms in individuals with major depression who are partial responders (based on HAM-D scores) to selective serotonin reuptake inhibitors (e.g., fluoxetine, sertraline, citalopram, paroxetine, fluvoxamine) was assessed.
Subjects (n=13) were randomly assigned to one of two groups, designated mecamylamine or MEC and Placebo, respectively, for an 8-week clinical trial. Individuals in the MEC group received mecamylamine plus an antidepressant and those in the placebo group received placebo plus an antidepressant Eleven subjects (n=6 randomized to MEC, n=5 to placebo) have completed this 8-week clinical trial and results are presented for those individuals. Two subjects are currently enrolled in the protocol. No clinical or demographic differences have been found between subjects randomized to MEC versus Placebo (Table). […] These preliminary results support our primary hypothesis that central nAChR antagonism augments SSRI-treated refractory major depression.

## CNC1(C)C2CCC(C2)C1(C)C (stereo not shown) [MEC, Bicyclo(2.2.1)heptan-2-amine, N,2,3,3-tetramethyl-]
8-week trial, MEC plus antidepressant versus placebo plus antidepressant
  difference between MEC and Placebo groups on any adverse events: no significant differences
8-week trial, MEC plus antidepressant, placebo 1/5, p=0.06
  adverse event: report of decreased libido (subjects reporting): 4/5
8-week trial, MEC plus antidepressant, placebo 3/5, p=0.11
  adverse event: constipation (subjects reporting): 5/6
End of 8-week trial, MEC plus antidepressant, n=6 completers, placebo 0/5, p=0.02
  subjects classified as responders, as assessed by a 50% reduction in HAM-D scores: Four out of six
